From patent US20150150892A1, “METHODS AND PRODUCTS RELATED TO LUNG CANCER” (Massachusetts Institute of Technology, priority 2012, published 2015)

Legend:
[1] = system: NF-κB transcription factor subunit p65; assay: Immunoblot of nuclear and cytoplasmic p65 in KP cell lines; assay type: cell-based, mouse; conditions: 5 nM bortezomib, 24 hours, KP1 and KP2 cell lines, vs vehicle control
Experimental: FIG. 1. Bortezomib inhibits NF-κB signaling and induces apoptosis in murine lung adenocarcinoma cell lines. (1A) reduction of nuclear p65 level by bortezomib. Two KP (KrasLSL-G12D/wt;p53flox/flox) cell lines (KP1 and KP2) were treated with 5 nM bortezomib (BZ) or vehicle control (ctrl) for 24 hours. Nuclear (N) and cytoplasmic (C) fractions of protein lysates were immunoblotted with the indicated antibodies. NEMO and Parp serve as cytoplasmic and nuclear loading controls, respectively. (1B) quantitative PCR analysis of a subset of NF-κB target genes in 5 nM bortezomib (BZ)-treated KP cells at the indicated time points. Vehicle control is set to 1. (1C) apoptosis in KP and KP^M (KrasLSL-G12D/wt;p53R127H/−) cells induced by bortezomib. Cells were pre-treated with 5 nM bortezomib for 24 hours, and protein lysates were immunoblotted with CC3 and tubulin antibodies. (1D) quantification of cell death in bortezomib-treated cells. Cells were treated with the indicated concentrations of bortezomib for 24 hours, and dead cells were quantified by Trypan blue staining. Error bars are SD (n=3).
Cell pellets were lysed in Laemmli buffer. Equal amounts of protein (16 μg) were separated on 10% SDS-polyacrylamide gels and transferred to polyvinylidene difluoride membranes. […]

KP mice = assay: Kaplan-Meier survival of KP mice; assay type: in vivo, mouse; conditions: KP mice, bortezomib 1 mg/kg once a week for 4 weeks from 8 weeks after Adeno-Cre; control 76.8±10.6 days; P=0.001
Experimental: (5A and 5B) Kaplan-Meier survival curve of vehicle control and bortezomib-treated KP (5A) and K (5B) mice. Arrows indicate weekly 1 mg/kg bortezomib regimen. […] Arrows indicate bortezomib injection.
To initiate lung tumors, cohorts of K or KP mice of 129svJae background were infected with 2.5×10^7 plaque-forming units of Adeno-Cre (University of Iowa) by intranasal inhalation, as described previously (2, 28). Mice were given bortezomib (LC Labs) in PBS [0.5% dimethylsulfoxide (DMSO)] at 1 mg/kg body weight i.v., as indicated.
To analyze the long-term effects of bortezomib therapy, we investigated whether a 4-dose regimen of bortezomib (19) could prolong survival of tumor-bearing mice. Using a cohort of KP mice, we treated tumor-bearing animals 8 weeks after Adeno-Cre infection with bortezomib once a week for 4 weeks (FIG. 10A).

With CC(C)C[C@H](NC(=O)[C@H](Cc1ccccc1)NC(=O)c1cnccn1)B(O)O [bortezomib, N-(2-pyrazine) carbonyl-L-phenylalanine-L-leucine boronic acid] the “nuclear accumulation of p65” value [1] was “reduced nuclear accumulation” and the survival (KP mice) was 104.2 ± 19.8 days.
